Assay results from publication PMC6242839 (Nature Communications, 2018).
≈ marks a conversion by molar mass, not a printed value.

Experiments:
[1] = system: Bacillus cereus ATCC 14579; details: cited from earlier work
[2] = system: B. anthracis ovine strain (animal isolate); assay: microbe, parasite or virus in culture; assay type: cell-based; details: Bacillus anthracis; 16 h at 37 °C; read-out: MIC B. anthracis Ovine
[3] = system: B. anthracis Sterne strain; assay: microbe, parasite or virus in culture; assay type: cell-based; details: Bacillus anthracis; 16 h at 37 °C; read-out: MIC B. anthracis Sterne
B. cereus (ATCC 10876) = assay: microbe, parasite or virus in culture; assay type: cell-based; details: Bacillus cereus, ATCC10876; 16 h at 37 °C; read-out: MIC B. cereus
E. faecalis (ATCC 29212) = assay: microbe, parasite or virus in culture; assay type: cell-based; details: Enterococcus faecalis, ATCC29212; 16 h at 37 °C; read-out: MIC E. faecalis
[4] = system: B. anthracis pathogenic strain (human isolate); assay: microbe, parasite or virus in culture; assay type: cell-based; details: Bacillus anthracis; 16 h at 37 °C; read-out: MIC B. anthracis Pathogenic
[5] = system: B. cereus ATCC 14579 strains resistant to known antibiotics; assay: microbe, parasite or virus in culture; assay type: cell-based, Bacillus cereus
in vitro = details: human
B. cereus ATCC 14579 = assay: microbe, parasite or virus in culture; assay type: cell-based, Bacillus cereus; details: Bacillus cereus, ATCC14579

Compound | MIC [1] | MIC [2] | MIC [3] | MIC (B. cereus (ATCC 10876)) | MIC (E. faecalis (ATCC 29212)) | MIC [4] | MIC of the antibiotic [5] | IC50 at 24 h (in vitro) | IC50 at 48 h (in vitro) | MBC (B. cereus ATCC 14579) | MIC (B. cereus ATCC 14579)
CC1(C)S[C@@H]2[C@H](NC(=O)[C@H](N)c3ccccc3)C(=O)N2[C@H]1C(=O)O [Ampicillin] | 0.25 µg/mL (≈ 0.715 µM) |  |  |  |  |  |  |  |  |  | 
O=C(N[C@H](CO)[C@H](O)c1ccc([N+](=O)[O-])cc1)C(Cl)Cl [Chloramphenicol, reference compound] | 2.5 µg/mL (≈ 7.74 µM) | 25 µM (≈ 8.08 µg/mL) | 25 µM (≈ 8.08 µg/mL) | 19 µM (≈ 6.14 µg/mL) | 19 µM (≈ 6.14 µg/mL) | 25 µM (≈ 8.08 µg/mL) |  |  |  |  | 
O=C(O)c1cn(C2CC2)c2cc(N3CCNCC3)c(F)cc2c1=O [Ciprofloxacin] | 0.32 µg/mL (≈ 0.966 µM) |  |  |  |  |  | 50 µg/mL |  |  |  | 
CCCCCCCCCCCCS[C@H]1C[C@H](O)[C@@H](O)[C@H](C)O1 [Compound 2] |  | 48 µM (≈ 16 µg/mL) | 24 µM (≈ 7.98 µg/mL) | 48 µM (≈ 16 µg/mL) | > 48 µM | 48 µM (≈ 16 µg/mL) |  | > 50 µM | > 50 µM |  | 
CCCCCCCCCCCC[C@H]1C[C@H](O)[C@@H](O)[C@H](C)O1 [Compound 3] |  | 54 µM (≈ 16.2 µg/mL) | 27 µM (≈ 8.11 µg/mL) | 27 µM (≈ 8.11 µg/mL) | > 54 µM | 54 µM (≈ 16.2 µg/mL) |  | > 100 µM | 100 µM |  | 
CCCCCCCCCCCCO[C@H]1C[C@H](O)[C@H](O)[C@H](C)O1 [Compound 4] |  | 25 µM (≈ 7.91 µg/mL) | 25 µM (≈ 7.91 µg/mL) | 25 µM (≈ 7.91 µg/mL) | > 50 µM | 25 µM (≈ 7.91 µg/mL) |  | 100 µM | 50 µM |  | 
CCCCCCCCCCCCO[C@@H]1C[C@H](O)[C@@H](O)[C@H](C)O1 [Compound 5] |  | 101 µM (≈ 32 µg/mL) | 202 µM (≈ 63.9 µg/mL) | 202 µM (≈ 63.9 µg/mL) | 101 µM (≈ 32 µg/mL) | 101 µM (≈ 32 µg/mL) |  |  |  |  | 
CCCCCCCCCCCCO[C@@H]1O[C@@H](C)[C@H](O)[C@@H](O)[C@H]1O [Compound 6] |  | 48 µM (≈ 16 µg/mL) | 24 µM (≈ 7.98 µg/mL) |  | 48 µM (≈ 16 µg/mL) | 24 µM (≈ 7.98 µg/mL) |  |  |  | 32 µg/mL (≈ 96.2 µM) | 32 µg/mL (≈ 96.2 µM)
CCCCCCCCCCCCO[C@H]1C[C@H](O)[C@@H](O)CO1 [Compound 7] |  | 52 µM (≈ 15.7 µg/mL) | 26 µM (≈ 7.86 µg/mL) |  | 52 µM (≈ 15.7 µg/mL) | 52 µM (≈ 15.7 µg/mL) |  | > 100 µM | 100 µM | 16 µg/mL (≈ 52.9 µM) | 16 µg/mL (≈ 52.9 µM)
CCCCCCCCCCCCO[C@@H]1C[C@H](O)[C@@H](O)CO1 [Compound 8] |  | 52 µM (≈ 15.7 µg/mL) | 26 µM (≈ 7.86 µg/mL) |  | 52 µM (≈ 15.7 µg/mL) | 26 µM (≈ 7.86 µg/mL) |  |  |  |  | 
CCCCCCCCCCCCO[C@@H]1C[C@@H](O)[C@H](O)[C@@H](C)O1 [Compound 9] |  | 50 µM (≈ 15.8 µg/mL) | 50 µM (≈ 15.8 µg/mL) | 25 µM (≈ 7.91 µg/mL) | 50 µM (≈ 15.8 µg/mL) | 50 µM (≈ 15.8 µg/mL) |  | 100 µM | 50 µM |  | 
CCCCCCCCCCCC[C@@H]1C[C@@H](O)[C@H](O)[C@@H](C)O1 [Compound 10, 1-(2,6-Dideoxy-α-D-arabino-hexopyranosyl)dodecane] |  | 27 µM (≈ 8.11 µg/mL) | 27 µM (≈ 8.11 µg/mL) | 27 µM (≈ 8.11 µg/mL) | > 54 µM | 27 µM (≈ 8.11 µg/mL) |  | > 100 µM | > 100 µM | 32 µg/mL (≈ 106 µM) | 32 µg/mL (≈ 106 µM)
CCCCCCCCCCCCO[C@H]1O[C@H](C)C[C@H](O)[C@H]1O [Compound 11, dodecyl 4,6-dideoxy-α-D-xylo-hexopyranoside] |  | 12.6 µM (≈ 3.99 µg/mL) | 12.6 µM (≈ 3.99 µg/mL) | 12.6 µM (≈ 3.99 µg/mL) | 12.6 µM (≈ 3.99 µg/mL) | 12.6 µM (≈ 3.99 µg/mL) |  |  | 50 µM |  | 
CCCCCCCCCCCCO[C@@H]1O[C@H](C)C[C@H](O)[C@H]1O [Compound 12] |  | > 405 µM | > 405 µM | > 405 µM | > 405 µM | > 405 µM |  |  | 50 µM |  | 
CCCCCCCCCCCC[C@@H]1C[C@@H](O)[C@H](O)[C@@H](CO)O1 [Compound 14] |  | 51 µM (≈ 16.1 µg/mL) | 104 µM (≈ 32.9 µg/mL) | 51 µM (≈ 16.1 µg/mL) | 51 µM (≈ 16.1 µg/mL) | 51 µM (≈ 16.1 µg/mL) |  |  |  |  | 
CCCCCCCCCCCCO[C@H]1O[C@H](CO)C[C@H](O)[C@H]1O [Compound 15] |  | 51 µM (≈ 17 µg/mL) | 51 µM (≈ 17 µg/mL) | 51 µM (≈ 17 µg/mL) | 51 µM (≈ 17 µg/mL) | 51 µM (≈ 17 µg/mL) |  |  |  |  | 

Compound | MIC [1] | MIC [2] | MIC [3] | MIC (B. cereus (ATCC 10876)) | MIC (E. faecalis (ATCC 29212)) | MIC [4] | MIC of the antibiotic [5] | IC50 at 24 h (in vitro) | IC50 at 48 h (in vitro) | MBC (B. cereus ATCC 14579) | MIC (B. cereus ATCC 14579)
CCCCCCCCCCCCO[C@H]1O[C@H](C)[C@@H](O)[C@H](O)[C@@H]1O [Compound 16] |  | > 48 µM | 24 µM (≈ 7.98 µg/mL) | 48 µM (≈ 16 µg/mL) | > 48 µM | 24 µM (≈ 7.98 µg/mL) |  |  |  |  | 
CCCCCCCCCCCCO[C@@H]1C[C@@H](O)[C@H](O)CO1 [Compound 17] |  | 52 µM (≈ 15.7 µg/mL) | 26 µM (≈ 7.86 µg/mL) | 52 µM (≈ 15.7 µg/mL) | > 52 µM | 52 µM (≈ 15.7 µg/mL) |  | > 100 µM | > 100 µM | 16 µg/mL (≈ 52.9 µM) | 16 µg/mL (≈ 52.9 µM)
CCCCCCCCCCCCO[C@H]1C[C@@H](O)[C@H](O)CO1 [Compound 18] |  | 52 µM (≈ 15.7 µg/mL) | 26 µM (≈ 7.86 µg/mL) | 52 µM (≈ 15.7 µg/mL) | 52 µM (≈ 15.7 µg/mL) | 26 µM (≈ 7.86 µg/mL) |  | > 100 µM | > 50 µM |  | 
CCCCCCCCCCCCS[C@@H]1C[C@@H](O)[C@H](O)CO1 [Compound 19] |  | 50 µM (≈ 15.9 µg/mL) | 50 µM (≈ 15.9 µg/mL) | 25 µM (≈ 7.96 µg/mL) | 50 µM (≈ 15.9 µg/mL) | 25 µM (≈ 7.96 µg/mL) |  |  |  |  | 
CCCCCCCCCCCCS[C@H]1C[C@@H](O)[C@H](O)CO1 [Compound 20] |  | 50 µM (≈ 15.9 µg/mL) | 25 µM (≈ 7.96 µg/mL) | 50 µM (≈ 15.9 µg/mL) | > 50 µM | 50 µM (≈ 15.9 µg/mL) |  |  |  | 32 µg/mL (≈ 100 µM) | 32 µg/mL (≈ 100 µM)
CCCCCCCCCCCC[C@@H]1C[C@@H](O)[C@H](O)CO1 [Compound 21, 1-(2-Deoxy-α-D-threo-pentopyranosyl)dodecane] |  | 28 µM (≈ 8.02 µg/mL) | 28 µM (≈ 8.02 µg/mL) | 28 µM (≈ 8.02 µg/mL) | 56 µM (≈ 16 µg/mL) | 28 µM (≈ 8.02 µg/mL) |  | > 100 µM | 100 µM |  | 
CC[C@H]1OC(=O)[C@H](C)[C@@H](O[C@H]2C[C@@](C)(OC)[C@@H](O)[C@H](C)O2)[C@H](C)[C@@H](O[C@@H]2O[C@H](C)C[C@H](N(C)C)[C@H]2O)[C@](C)(O)C[C@@H](C)C(=O)[C@H](C)[C@@H](O)[C@]1(C)O [Erythromycin] | 8 µg/mL (≈ 10.9 µM) |  |  |  |  |  | 20 µg/mL |  |  |  | 
CNC(C)C1CCC(N)C(OC2C(N)CC(N)C(OC3OCC(C)(O)C(NC)C3O)C2O)O1 (stereo not shown) [Gentamicin] | 4 µg/mL (≈ 8.38 µM) |  |  |  |  |  |  |  |  |  | 
NC[C@H]1O[C@H](O[C@H]2[C@H](O)[C@@H](O[C@H]3O[C@H](CO)[C@@H](O)[C@H](N)[C@H]3O)[C@H](N)C[C@@H]2N)[C@H](O)[C@@H](O)[C@@H]1O [Kanamycin] | 15 µg/mL (≈ 31 µM) |  |  |  |  |  |  |  |  |  | 
CCn1cc(C(=O)O)c(=O)c2cc(F)c(N3CCNCC3)cc21 [Norfloxacin] | 1.25 µg/mL (≈ 3.91 µM) |  |  |  |  |  |  |  |  |  | 
CO[C@H]1/C=C/O[C@@]2(C)Oc3c(C)c(O)c4c(O)c(c(/C=N/N5CCN(C)CC5)c(O)c4c3C2=O)NC(=O)/C(C)=C\C=C\[C@H](C)[C@H](O)[C@@H](C)[C@@H](O)[C@@H](C)[C@H](OC(C)=O)[C@@H]1C [Rifampicin] | 0.5 µg/mL (≈ 0.608 µM) |  |  |  |  |  |  |  |  |  | 
CN(C)[C@@H]1C(O)=C(C(N)=O)C(=O)[C@@]2(O)C(O)=C3C(=O)c4c(O)cccc4[C@@](C)(O)[C@H]3C[C@@H]12 [Tetracycline] | 2.5 µg/mL (≈ 5.63 µM) |  |  |  |  |  | 50 µg/mL |  |  |  | 
Colistin | > 5000 µg/mL |  |  |  |  |  |  |  |  |  | 
Daptomycin | 3.125 µg/mL |  |  |  |  |  |  |  |  |  | 
Penicillin |  |  |  |  |  |  | 20 µg/mL |  |  |  | 
